Results from EP0855387A1, “2-ACYLAMINOBENZAMIDE DERIVATIVES AND PREVENTIVE AND REMEDY FOR DISEASES CAUSED BY THE SUPERMULTIPLICATION OF VASCULAR INTIMAL CELLS” (KISSEI PHARMACEUTICAL CO., LTD., priority 1995, dated 1997).

These molecules were tested on Spontaneous hypertensive rat-derived vascular smooth muscle cells (VSMCs) in thoracic aorta (assay: Inhibition test on vascular smooth muscle cells proliferation (3H-thymidine incorporation)). Details: 3H-thymidine incorporation into DNA, 24 hours incubation with compound; read-out: Concentration of 50% inhibitory activity (IC50).
Format: cell-based
Description: Thus, the compounds of the present invention have a very potent inhibitory effect on vascular smooth muscle cells proliferation.
Spontaneous hypertensive rat-derived vascular smooth muscle cells (VSMCs) in thoracic aorta were isolated by explant technique. The VSMCs were placed into 96 wells at 5000 cells/well and incubated in DMEM containing 10 % fetal calf serum at 37 °C in 95 % air and 5 % carbon dioxide for 3 days. After the incubation, the medium was replaced with DMEM containing each compound and ^3H-thymidine, and then the VSMCs were incubated. 24 hours later, the incorporation of ^3H-thymidine into DNA was determined and the radioactivity was defined as proliferation inhibitory activity of VSMCs. The activity of each compound was shown as a concentration which reduced the radioactivity of non-treated group by 50 % (IC50).

Row | Compound | IC50 [µM]
1 | CCCCNC(=O)c1ccccc1NC(=O)/C=C/c1ccc(OC)c(OC)c1 [Compound 19, (E)-N-Butyl-2-(3,4-dimethoxycinnamoylanino)benzamide] | 5
2 | COc1ccc(/C=C/C(=O)Nc2ccccc2C(=O)NCCCc2ccccc2)cc1OC [Compound 20, (E)-2-(3,4-Dimethoxycinnanoylamino)-N-(3-phenylpropyl)benzamide] | 7
3 | COc1cc(/C=C/C(=O)Nc2ccccc2C(=O)NCCO)cc(OC)c1OC [Compound 45, (E)-N-(2-Hydroxyethyl)-2-(3,4,5-trimethoxycinnnamoylamino)benzamide] | 34

Same assay, conditions: Rattus norvegicus, VSMC; 3H-thymidine incorporation into DNA, 24 hours incubation with compound; read-out: Concentration of 50% inhibitory activity (IC50)

Row | Compound | IC50 [µM]
4 | CCOc1cccc(/C=C/C(=O)Nc2ccccc2C(N)=O)c1 [Compound 1, (E)-2-(3-Ethoxycinnamoylamino)benzamide] | 2
5 | CC(C)Oc1cccc(/C=C/C(=O)Nc2ccccc2C(N)=O)c1 [Compound 2, (E)-2-(3-Isopropoxycinnamoylamino)benzamide] | 14
6 | CCOC(=O)c1ccccc1/C=C/C(=O)Nc1ccccc1C(N)=O [Compound 3, (E)-2-(2-Ethoxycarbonylcinnamoylamino)benzamide] | 46
7 | COc1cccc(/C=C/C(=O)Nc2ccccc2C(N)=O)c1OC [Compound 5, (E)-2-(2,3-Dimethoxycinnamoylamino)benzamide] | 5
8 | NC(=O)c1ccccc1NC(=O)/C=C/c1cccc(OCc2ccccc2)c1 [Compound 6, (E)-2-(3-Benzyloxycinnamoylamino)benzamide] | 9
9 | CCCCOc1cccc(/C=C/C(=O)Nc2ccccc2C(N)=O)c1 [Compound 7, (E)-2-(3-Butoxycinnamoylamino)benzamide] | 86
10 | CCOc1ccc(/C=C/C(=O)Nc2ccccc2C(N)=O)cc1 [Compound 9, (E)-2-(4-Ethoxycinnamoylamino)benzamide] | 5
11 | COc1cccc(/C=C/C(=O)Nc2ccccc2C(N)=O)c1 [Compound 11, (E)-2-(3-Methoxycinnamoylamino)benzamide] | 9
12 | COc1ccc(/C=C/C(=O)Nc2ccccc2C(N)=O)c(OC)c1 [Compound 12, (E)-2-(2,4-Dimethoxycinnamoylamino)benzamide] | 3
13 | COc1ccc(OC)c(/C=C/C(=O)Nc2ccccc2C(N)=O)c1 [Compound 13, (E)-2-(2,5-Dimethoxycinnamoylamino)benzamide] | 3
14 | CCOc1cc(/C=C/C(=O)Nc2ccccc2C(N)=O)ccc1OC [Compound 16, (E)-2-(3-Ethoxy-4-methoxycinnamoylamino)benzamide] | 5
15 | CCOc1ccccc1/C=C/C(=O)Nc1ccccc1C(N)=O [Compound 21, (E)-2-(2-Ethoxycinnamoylamino)benzamide] | 30
16 | NC(=O)c1ccccc1NC(=O)/C=C/c1cccc(Cl)c1 [Compound 22, (E)-2-(3-Chlorocinnamoylamino)benzamide] | 30
17 | NC(=O)c1ccccc1NC(=O)/C=C/c1cccc(F)c1 [Compound 23, (E)-2-(3-Fluorocinnamoylamino)benzamide] | 39
18 | COc1ccccc1/C=C/C(=O)Nc1ccccc1C(N)=O [Compound 24, (E)-2-(2-Methoxycinnamoylamino)benzamide] | 8
19 | COc1cc(OC)c(OC)cc1/C=C/C(=O)Nc1ccccc1C(N)=O [Compound 25, (E)-2-(2,4,5-Trimethoxycinnamoylamino)benzamide] | 6
20 | COc1cc(/C=C/C(=O)Nc2ccccc2C(N)=O)cc(OC)c1OC [Compound 26, (E)-2-(3,4,5-Trimethoxycinnamoylamino)benzamide] | 7
21 | NC(=O)c1ccccc1NC(=O)/C=C/c1ccc2c(c1)OCO2 [Compound 30, (E)-2-(3,4-Methylenedioxycinnamoylamino)benzamide] | 9
22 | COc1ccc(/C=C/C(=O)Nc2ccccc2C(N)=O)c(OC)c1OC [Compound 31, (E)-2-(2,3,4-Trimethoxycinnamoylamino)benzamide] | 54
23 | COc1cc(/C=C/C(=O)Nc2ccccc2C(N)=O)cc(OC)c1 [Compound 32, (E)-2-(3,5-Dimethoxycinnamoylamino)benzamide] | 80
24 | CC(=O)c1ccc(/C=C/C(=O)Nc2ccccc2C(N)=O)cc1 [Compound 33, (E)-2-(4-Acetylcinnamoylamino)benzamide] | 78
25 | CCOc1c(OC)cc(/C=C/C(=O)Nc2ccccc2C(N)=O)cc1OC [Compound 35, (E)-2-(3,5-Dimethoxy-4-ethoxycinnamoylamino)benzamide] | 61
26 | COc1cc(OC)c(/C=C/C(=O)Nc2ccccc2C(N)=O)c(OC)c1 [Compound 37, (E)-2-(2,4,6-Trimethoxycinnamoylamino)benzamide] | 100

Row | Compound | IC50 [µM]
27 | NC(=O)c1ccccc1NC(=O)/C=C/c1ccc2c(c1)OCCO2 [Compound 38, (E)-2-(3,4-Ethylenedioxycinnamoylamino)benzamide] | 58
28 | COc1ccc(/C=C/C(=O)Nc2ccccc2C(=O)NCCN(C)C)cc1OC [Compound 39, (E)-2-(3,4-Dimethoxycinnamoylamino)-N-(2-dimethylaminoethyl)benzamide] | 55
29 | COc1ccc(/C=C/C(=O)Nc2ccccc2C(=O)NCCOCCO)cc1OC [Compound 42, (E)-2-(3,4-Dimethoxycinnamoylamino)-N-[2-(2-hydroxyethoxy)ethyl]benzamide] | 69
30 | COc1cc(/C=C/C(=O)Nc2ccccc2C(=O)NCCOCCO)cc(OC)c1OC [Compound 43, (E)-N-[2-(2-Hydroxyethoxy)ethyl]-2-(3,4,5-trimethoxycinnamoylamino)benzamide] | 44
31 | CCOc1ccc(/C=C/C(=O)Nc2ccccc2C(=O)NCCOCCO)cc1OC [Compound 44, (E)-2-(4-Ethoxy-3-methoxycinnamoylamino)-N-[2-(2-hydroxyethoxy)ethyl]benzamide] | 58
32 | COc1ccc(/C=C/C(=O)Nc2ccccc2C(=O)NCCO)cc1OC [Compound 46, (E)-2-(3,4-Dimethoxycinnamoylamino)-N-(2-hydroxyethyl)benzamide] | 58
33 | COc1ccc(/C=C/C(=O)Nc2ccccc2C(=O)NCCCCO)cc1OC [Compound 47, (E)-2-(3,4-Dimethoxycinnamoylamino)-N-(4-hydroxybutyl)benzamide] | 60
34 | COc1cc(/C=C/C(=O)Nc2ccccc2C(=O)NCCCCO)cc(OC)c1OC [Compound 48, (E)-N-(4-Hydroxybutyl)-2-(3,4,5-trimethoxycinnamoylamino)benzamide] | 42
35 | CCOc1cc(/C=C/C(=O)Nc2ccccc2C(=O)NCCO)ccc1OC [Compound 49, (E)-2-(3-Ethoxy-4-methoxycinnamoylamino)-N-(2-hydroxyethyl)benzamide] | 42
36 | COc1ccc(/C=C/C(=O)Nc2ccccc2C(=O)NCCN(CCO)CCO)cc1OC [Compound 50, (E)-N-[2-[Bis(2-hydroxyethyl)amino]ethyl]-2-(3,4-dimethoxycinnamoylamino)benzamide] | 71
37 | COc1cc(/C=C/C(=O)Nc2ccccc2C(=O)NCCN(CCO)CCO)cc(OC)c1OC [Compound 51, (E)-N-[2-[Bis(2-hydroxyethyl)amino]ethyl]-2-(3,4,5-trimethoxycinnamoylamino)benzamide] | 28
38 | COc1ccc(C=C(C#N)C(=O)Nc2ccccc2C(N)=O)cc1OC [Compound 52, 2-(α-Cyano-3,4-dimethoxycinnamoylamino)benzamide] | 117
39 | COc1ccc(C(C#N)=CC(=O)Nc2ccccc2C(N)=O)cc1OC [Compound 53, 2-(β-Cyano-3,4-dimethoxycinnamoylamino)benzamide] | 56
40 | CN(C)c1ccc(/C=C/C(=O)Nc2ccccc2C(N)=O)cc1 [Compound 55, (E)-2-(4-Dimethylaminocinnamoylamino)benzamide] | 65
41 | COc1ccc(/C=C/C(=O)Nc2cc(OC)c(OC)cc2C(=O)NCCO)cc1OC [Compound 56, (E)-4,5-Dimethoxy-2-(3,4-dimethoxycinnamoylamino)-N-(2-hydroxyethyl)benzamide] | 44
42 | COc1cc(NC(=O)/C=C/c2cc(OC)c(OC)c(OC)c2)c(C(N)=O)cc1OC [Compound 57, (E)-4,5-Dimethoxy-2-(3,4,5-trimethoxycinnamoylamino)benzamide] | 9
43 | CNC(=O)c1ccccc1NC(=O)/C=C/c1ccc(OC)c(OC)c1 [Compound 58, (E)-2-(3,4-Dimethoxycinnamoylamino)-N-methylbenzamide] | 15
44 | COc1ccc(/C=C/C(=O)Nc2ccccc2C(=O)NCC2CCCCC2)cc1OC [Compound 59, (E)-N-Cyclohexylmethyl-2-(3,4-dimethoxycinnamoylamino)benzamide] | 4
45 | COc1ccc(/C=C/C(=O)Nc2ccccc2C(=O)NO)cc1OC [Compound 60, (E)-2-(3,4-Dimethoxycinnamoylamino)-N-hydroxybenzamide] | 36
46 | CCOc1ccc(/C=C/C(=O)Nc2cc(OC)c(OC)cc2C(=O)NCCO)cc1OC [Compound 61, (E)-4,5-Dimethoxy-2-(4-ethoxy-3-methoxycinnamoylamino)-N-(2-hydroxyethyl)benzamide] | 45
47 | COc1ccc(NC(=O)/C=C/c2ccc(OC)c(OC)c2)c(C(=O)NCCO)c1 [Compound 62, (E)-2-(3,4-Dimethoxycinnamoylamino)-N-(2-hydroxyethyl)-5-methoxybenzamide] | 89
48 | COc1cc(/C=C/C(=O)Nc2ccc(O)cc2C(N)=O)cc(OC)c1OC [Compound 63, (E)-5-Hydroxy-2-(3,4,5-trimethoxycinnamoylamino)benzamide] | 46
49 | COc1cc(/C=C/C(=O)Nc2c(O)cccc2C(N)=O)cc(OC)c1OC [Compound 64, (E)-3-Hydroxy-2-(3,4,5-trimethoxycinnamoylamino)benzamide] | 96
